Test results published in patent US20240299414A1, “SUBCUTANEOUS OR INTRAMUSCULAR INJECTION FORMULATIONS OF ILOPROST” (EICOS SCIENCES, INC., priority 2020, published 2024).
Read-outs that look alike come from different tables or passages of the source.

Experiments:
[1] = PK sub-study of IV iloprost infusion (plasma, LC-MS); assay type: in vivo, human; settings: for AUC(0-t) / AUC(0-inf) / Vd / half-life: human, plasma; for AUC(0-t): read-out: AUC0-last, Geometric mean (geometric CV %); for AUC(0-inf): read-out: AUC0-inf, Geometric mean (geometric CV %); for Vd: read-out: Vss, Mean (SD)
Experimental: Eligible subjects were given the option to participate in a PK sub-study. Subjects who participated in the sub-study provided plasma samples for PK analysis. The samples were analyzed for iloprost concentrations using validated liquid chromatography mass spectrometry methods.
The following PK parameters were calculated whenever possible, based on the plasma concentrations of iloprost: • Steady state plasma concentration just before infusion was stopped • Area under the plasma concentration versus time curve (AUC) from time of dosing to the last time point with measurable concentration (AUC0-last) • AUC from time 0 extrapolated to infinity (AUC0-inf) • Percentage of AUC obtained by extrapolation (AUCextrap%) • Terminal elimination constant (λz) • Plasma terminal elimination half-life (t1/2) • Plasma clearance (CL), calculated as dose/AUC0-inf • Volume of distribution (V), calculated as dose/(λz×AUC0-inf)

[2] = Safety and tolerability in the IV iloprost study (adverse events, vital signs, ECG, laboratory); assay type: in vivo, human
Experimental: On Day 1, study drug was initiated at a starting dose of 0.5 ng/kg/min, and dose increases occurred every 30 minutes (±5 minutes) in increments of 0.5 ng/kg/min up to 2.0 ng/kg/min or the individual tolerated dose. If dose-limiting adverse events (e.g., headache, flushing, jaw pain, myalgia, nausea, or vomiting) occurred that could not be tolerated by the subject, or if the subject experienced symptomatic hypotension, then the dose was reduced in a step-wise manner by 0.5 ng/kg/min every 30 minutes (±5 minutes) until a tolerated dose was determined or the infusion was stopped until the symptoms resolved at which point the study drug was reinitiated at a previously tolerated dose. If symptomatic hypotension or a dose-limiting adverse event occurred during administration of iloprost at the starting dose (i.e., 0.5 ng/kg/min), the infusion was reduced to 0.25 ng/kg/min. If the dose of 0.25 ng/kg/min was not tolerated due to symptomatic hypotension or if a dose-limiting adverse event occurred, the study drug was discontinued, and re-initiation of the infusion could have been attempted after the event had resolved or had been treated. Blood pressure and heart rate were monitored 15 minutes (±5 minutes) prior to and after all dose changes. The maximum tolerated dose was maintained for the remaining 6-hour daily period. At the end of the 6-hour infusion period, the dose was stopped. Subjects were to be monitored for up to 1 hour after completion of study drug infusion (i.e., vital signs were obtained 15 minutes [+5 minutes] and 1 hour [+15 minutes] after completion of the infusion).
Safety parameters included adverse events, physical examination findings, vital sign measurements (heart rate and blood pressure), 12-lead electrocardiogram (ECG) findings, and standard clinical laboratory measurements (chemistry and hematology).

[3] = 1.5 ng/kg, maximum tolerated dose level 1.50 ng/kg/min IV, n = 1
[4] = maximum tolerated dose level 1.00 ng/kg/min IV, n = 1
[5] = maximum tolerated dose level 1.00 ng/kg/min IV, n = 2
[6] = maximum tolerated dose level 2.00 ng/kg/min IV, n = 1
[7] = maximum tolerated dose level 2.00 ng/kg/min IV, n = 4

In the case of `CC#CCC(C)[C@H](O)/C=C/[C@@H]1[C@H]2C/C(=C/CCCC(=O)O)C[C@H]2C[C@H]1O` (stereo partly drawn) [Iloprost, (5E)-5-[(3aS,4R,5R,6aS)-5-hydroxy-4-[(E,3S)-3-hydroxy-4-methyloct-1-en-6-ynyl]-3,3a,4,5,6,6a-hexahydro-1H-pentalen-2-ylidene]pentanoic acid], the “geometric mean of Css, AUC0-last and AUC0-inf versus dose” value ([1]; 0.50 to 2.00 ng/kg/min, exception Css and AUC0-last at 1.50 ng/kg/min) is reported as “increased as dose increased”, the AUC(0-t) ([1]; 0.5 ng/kg, maximum tolerated dose level 0.50 ng/kg/min IV, n = 1) is reported as 0.116 ng·h/mL and the AUC(0-inf) [1, 3] is reported as 0.603 ng·h/mL. For the same compound, the Vd [1, 3] was 49.3 L, the half-life ([1]; 1.5 ng/kg, maximum tolerated dose level 1.50 ng/kg/min IV, n = 1, read-out: t1/2, Mean (SD) (converted)) was 27 min and the AUC(0-t) ([1]; 1.5 ng/kg, maximum tolerated dose level 1.50 ng/kg/min IV, n = 2) was 0.203 ng·h/mL. The half-life ([1]; intravenous, range across the 4 dose levels, read-out: mean t½) was 22.9 to 28.3 min, the AUC(0-inf) [1, 4] was 0.379 ng·h/mL and the Vd [1, 4] was 62 L. It also gave a half-life ([1]; maximum tolerated dose level 1.00 ng/kg/min IV, n = 1, read-out: t1/2, Mean (SD) (converted)) of 24.6 min, an AUC(0-t) [1, 5] of 0.315 ng·h/mL and an AUC(0-inf) [1, 6] of 0.701 ng·h/mL. It also gave a Vd [1, 6] of 35.5 L, a half-life ([1]; maximum tolerated dose level 2.00 ng/kg/min IV, n = 1, read-out: t1/2, Mean (SD) (converted)) of 22.9 min and an AUC(0-t) [1, 7] of 0.478 ng·h/mL. The “Css, Geometric mean (geometric CV %)” value ([1]; maximum tolerated dose level 0.50 ng/kg/min IV, n = 1) was 19.60 (NA) pg/mL, the “CLss, Mean (SD)” value [1, 4] was 91.22 (NA) L/h and the “Css, Geometric mean (geometric CV %)” value [1, 5] was 51.31 (20.7) pg/mL. For the same compound, the “CLss, Mean (SD)” value ([1]; maximum tolerated dose level 1.50 ng/kg/min IV, n = 1) was 6.01 (NA) L/h, the “Css, Geometric mean (geometric CV %)” value ([1]; maximum tolerated dose level 1.50 ng/kg/min IV, n = 2) was 32.90 (284.8) pg/mL and the “CLss, Mean (SD)” value [1, 6] was 64.53 (NA) L/h. For the same compound, the “Css, Geometric mean (geometric CV %)” value [1, 7] was 76.82 (56.9) pg/mL, the “TEAE abdominal pain, n [%]” value ([2]; human, in vivo) was 4 [23.5%] subjects and the “TEAE flushing, n [%]” value ([2]; human, in vivo) was 5 [29.4%] subjects. The “TEAE headache, n [%]” value ([2]; human, in vivo) was 16 [94.1%] subjects, the “TEAE nausea, n [%]” value ([2]; human, in vivo) was 11 [64.7%] subjects and the “subjects who experienced a TEAE, n (%)” value ([2]; human, in vivo) was 17 (100.0%) subjects. The “subjects with TEAEs considered severe by the Investigator, n (%)” value ([2]; human, in vivo) was “Two (11.8%) subjects”, the bradycardia or tachycardia ([2]; in vivo) was “no bradycardia or tachycardia reported” and the “changes in chemistry or hematology laboratory values” ([2]; in vivo) was “no clinically significant changes”. For the same compound, the “hypertensive or hypotensive events” value ([2]; in vivo) was “no hypertensive or hypotensive events reported” and the “SAE, AESI, TEAE leading to discontinuation of study drug, or TEAE leading to death” value ([2]; whole study) was “No subjects experienced”.
